Reference: patent US12162864B2, “Condensed-cyclic compound” (Takeda Pharmaceutical Company Limited, priority 2018, dated 2024)

Assays:
Rat PK test = assay type: in vivo; conditions: plasma, male SD rats, cassette dosing; for clearance / MRT: intravenous 0.1 mg/kg; for clearance: read-out: CL total (total clearance) (converted); for MRT: read-out: MRT iv (mean residence time); for Tmax: oral 1 mg/kg, read-out: Tmax (time to reach maximum plasma concentration)
Procedure: As the rat, 8-week-old male SD rats (Japan SLC, Inc.) were used. They were fed on a solid commercially available diet (CE-2, CLEA Japan, Inc.) and allowed to freely ingest tap water as the drinking water. An intravenous administration solution for the rats was prepared by weighing a test compound, dissolving same in dimethylacetamide (DMA) (Wako Pure Chemical Industries, Ltd.), adding the same volume of 1,3-butanediol (Wako Pure Chemical Industries, Ltd.) and mixing by stirring to give a DMA:1,3-butanediol (1:1, v/v) solution. An oral administration solution was prepared by weighing a test compound, pulverizing same in an agate mortar, and gradually adding 0.5 w/v % aqueous methylcellulose solution to give a suspension. For intravenous administration, the solution was administered into femoral vein of the rats at 0.1 mg/0.5 mL/kg (salt converted to free form). For oral administration, the suspension was administered to the rats at 1 mg/5 mL/kg (salt converted to free form). The cassette dosing method was used for the both administration routes, and the test compound was administered in the following manner. • Compound of Example 5 (intravenous: 9 compounds cassette administration, oral: 4 compounds cassette administration) • Compound of Example 6 (intravenous: 5 compounds cassette administration, oral: 3 compounds cassette administration) • Compound of Example 13 (intravenous: 10 compounds cassette administration, oral: 5 compounds cassette administration) • Compound of Example 14 (intravenous: 7 compounds cassette administration, oral: 3 compounds cassette administration) • Compound of Example 31 (intravenous: 9 compounds cassette administration, oral: 5 compounds cassette administration) • Compound of Example 60 (intravenous: 7 compounds cassette administration, oral: 2 compounds cassette administration)
In the case of intravenous administration, blood samples were collected from the tail vein at 5, 10, 15, 30 min, 1, 2, 4, 8 hr after administration, an anticoagulation treatment with heparin sodium (Shimizu Pharmaceutical Co., Ltd.) was performed, and plasma was collected after centrifugation and subjected to the measurement of drug concentration. In the case of oral administration, blood samples were collected from the tail vein at 15, 30 min, 1, 2, 4, 8 hr after administration, an anticoagulation treatment with heparin sodium was performed, and plasma was collected after centrifugation and subjected to the measurement of drug concentration.
All drug concentrations were measured by LC-MS/MS analysis. For a pharmacokinetics test, the plasma (50 μL) was placed in a tube, acetonitrile (150 μL) containing internal standard solution was added and they were mixed on a vortex mixer. Thereafter, the mixture was centrifuged (5000 rpm, 5 min, 4° C.). The supernatant (60 μL) after centrifugation was added to 10 mmol/L ammonium formate (160 μL) added earlier and mixed therewith. This sample was injected to LC/MS/MS. The HPLC system used was Shimadzu™ LC-20A (Shimadzu Corporation), the column used was Unison UK-C18 HT (3.0 μm, 2.0×20 mm, Imtakt) at 50° C., and 10 mmol/L ammonium formate, 0.2% formic acid as mobile phase A and acetonitrile, 0.2% formic acid as mobile phase B were fed each at a flow rate of 1.2 mL/min under gradient conditions of (B concentration: 0 min→0.1 min, 5%, 0.1→0.75 min, 5-99%, 0.75→1.15 min, 99%, 1.15→1.16 min, 5%, 1.16→1.5 min, 5%). MS/MS used was AB Sciex™ TQ5500-MPX (Applied Biosystems™).
The results are shown in Table 4. • Tmax: time to reach maximum plasma concentration • MRT: mean residence time • iv: intravenous administration • CL total: total clearance

Male beagle dogs = test: Experiment on gastrointestinal motility in dogs; assay type: in vivo, dog; conditions: 4 or 8 hr after administration, compared with solvent administration group
Procedure: Experiment on Gastrointestinal Motility in Dogs
Male beagle dogs each equipped with four pressure transducers (one in the ileum and three in the large intestine) were used after an acclimation period for 15 days. The compound of Example 13 (0.03 mg/kg) or the compound of Example 60 (1 mg/kg) was suspended in 0.5% methylcellulose solution and orally administered at a volume of 10 mL/kg. Only 0.5% methylcellulose was administered to a solvent administration group.
HAPC (abbreviation for high amplitude propagated contractions which mean strong contractions propagated from the oral side to the anal side of the large intestine during defecation. Intestinal contraction pattern observed during normal defecation.) at 4 or 8 hr after administration was counted using a telemeter for gastrointestinal motility (GTS-850, STARMEDICAL).

Cn1cnc(-c2ccc(Cc3cc(C(=O)N[C@H]4CCOC[C@@H]4O)c(F)c4c3OCC4)cc2)c1 [Example 5, 1,5-anhydro-2,3-dideoxy-3-(((4-fluoro-7-(4-(1-methyl-1H-imidazol-4-yl)benzyl)-2,3-dihydro-1-benzofuran-5-yl)carbonyl)amino)-L-threo-pentitol] showed a clearance (Rat PK test) of 11.1 mL/min/kg, an MRT (Rat PK test) of 36 min and a Tmax (Rat PK test) of 30 min.

Compound Cn1cc(-c2ccc(Cc3cc(C(=O)N[C@H]4CCOC[C@@H]4O)c(F)c4c3OCC4)cn2)cn1 [Example 6, 1,5-anhydro-2,3-dideoxy-3-(((4-fluoro-7-((6-(1-methyl-1H-pyrazol-4-yl)pyridin-3-yl)methyl)-2,3-dihydro-1-benzofuran-5-yl)carbonyl)amino)-L-threo-pentitol] has a clearance (Rat PK test) of 6.5 mL/min/kg, an MRT (Rat PK test) of 84 min and a Tmax (Rat PK test) of 72 min.

For COCCNC(=O)c1ccc(Cc2cc(C(=O)N[C@H]3CCOC[C@@H]3O)c(F)c3c2OCC3)cc1F [Example 13, 1,5-anhydro-2,3-dideoxy-3-(((4-fluoro-7-(3-fluoro-4-((2-methoxyethyl)carbamoyl)benzyl)-2,3-dihydro-1-benzofuran-5-yl)carbonyl)amino)-L-threo-pentitol], the clearance (Rat PK test) was 13.7 mL/min/kg, the MRT (Rat PK test) was 72 min and the Tmax (Rat PK test) was 60 min. For the same compound, the “number of HAPCs in the intestinal tract” value (Male beagle dogs; oral 0.03 mg/kg) was “an increase in the number of HAPCs in the intestinal tract was observed”.

In the case of CCOCCNC(=O)c1ccc(Cc2cc(C(=O)N[C@H]3CCOC[C@@H]3O)c(F)c3c2OCC3)cc1F [Example 14, 1,5-anhydro-2,3-dideoxy-3-(((7-(4-((2-ethoxyethyl)carbamoyl)-3-fluorobenzyl)-4-fluoro-2,3-dihydro-1-benzofuran-5-yl)carbonyl)amino)-L-threo-pentitol], the clearance (Rat PK test) is reported as 22.9 mL/min/kg, the MRT (Rat PK test) is reported as 36 min and the Tmax (Rat PK test) is reported as 42 min.

In the case of CNC(=O)c1ccc(Cc2cc(C(=O)N[C@H]3CCOC[C@@H]3O)c(OC)c3c2OCC3)cc1F [Example 31, 1,5-anhydro-2,3-dideoxy-3-(((7-(3-fluoro-4-(methylcarbamoyl)benzyl)-4-methoxy-2,3-dihydro-1-benzofuran-5-yl)carbonyl)amino)-L-threo-pentitol], the clearance (Rat PK test) is reported as 9.05 mL/min/kg, the MRT (Rat PK test) is reported as 54 min and the Tmax (Rat PK test) is reported as 42 min.

COCCCNC(=O)c1ccc(Cc2cc(C(=O)N[C@H]3CCOC[C@@H]3O)c(OC)c3c2CCC3)cc1F [Example 60, 1,5-anhydro-2,3-dideoxy-3-(((7-(3-fluoro-4-((3-methoxypropyl)carbamoyl)benzyl)-4-methoxy-2,3-dihydro-1H-inden-5-yl)carbonyl)amino)-L-threo-pentitol] showed a clearance (Rat PK test) of 18.6 mL/min/kg, an MRT (Rat PK test) of 36 min and a Tmax (Rat PK test) of 48 min. The “number of HAPCs in the intestinal tract” value (Male beagle dogs; oral 1 mg/kg) was “an increase in the number of HAPCs in the intestinal tract was observed”.
